According to ChEMBL document CHEMBL1212880, “Discovery of (2,4-dihydroxy-5-isopropylphenyl)-[5-(4-methylpiperazin-1-ylmethyl)-1,3-dihydroisoindol-2-yl]methanone (AT13387), a novel inhibitor of the molecular chaperone Hsp90 by fragment based drug design” (J Med Chem, 2010):
Values after ≈ are worked out from the molar mass of the structure shown. Active and inactive are the calls of the source. The calls are words filed in the database; no cut-off is given here.

How the values were obtained:
[1] = Protein binding in human plasma after 6 hrs by equilibrium dialysis method; format: ADME, cell-free; details: read-out: PPB (converted)
physchem = details: buffer, pH 7.4
hERG (KCNH2) [2] = target: T1, hERG (KCNH2) (Homo sapiens, UniProt Q12809); test: in vitro; details: HEK293 cells expressing hERG
Description: Inhibition of human ERG expressed in HEK293 cells at 30 uM by patch clamp assay

[3] = Dissociation constant, pKa of the compound; format: physicochemical
hERG (KCNH2) [4] = target: T1, hERG (KCNH2); test: in vitro; details: HEK293 cells expressing hERG; remark: listed apart in the source
Description: Inhibition of human ERG expressed in HEK293 cells at 3 uM by patch clamp assay

CYP3A4 = CYP3A4 (Homo sapiens, UniProt P08684); test: Inhibition of CYP3A4 at 10 uM; format: ADME
CYP2C9 = CYP2C9 (Homo sapiens, UniProt P11712); test: Inhibition of CYP2C9 at 10 uM; format: ADME
CYP2C19 = CYP2C19 (Homo sapiens, UniProt P33261); test: Inhibition of CYP2C19 at 10 uM; format: ADME
[5] = Chemical stability of the compound after 48 hrs; format: physicochemical
[6] = Solubility of the compound in phosphate buffer at 15 mg at pH 5.5; format: physicochemical
HCT-116 [7] = test: Antitumor activity against human HCT116 cells xenografted in BALB/c mouse assessed as inhibition of tumor growth at 60 mg/kg, ip qd for 3 days then no dose for 3 days for four dosing cycles measured on day 21; format: functional; details: HCT-116, ip, route intraperitoneal
[8] = Chemical stability of the compound after 144 hrs; format: physicochemical
[9] = Oral bioavailability in BALB/c mouse; format: ADME, organism-based; details: in vivo
HCT-116 [10] = test: Induction of apoptosis in human HCT116 cells assessed as reduction of CDK4 level at 30 nM after 18 hrs by immunoblotting; format: functional, cell-based
HCT-116 [11] = test: Antitumor activity against human HCT116 cells xenografted in BALB/c mouse assessed as inhibition of tumor growth at 60 mg/kg, ip qd for 3 days then no dose for 3 days for four dosing cycles measured on day 21 relative to control; format: functional; details: HCT-116, ip, route intraperitoneal
[12] = Half life in BALB/c mouse plasma at 2 to 10 mg/kg, iv; format: ADME, organism-based; design: dose 2-10 mg/kg, route intravenous
[13] = Volume of distribution at steady state in BALB/c mouse plasma at 2 to 10 mg/kg, iv; format: ADME, organism-based; design: dose 2-10 mg/kg, route intravenous; details: read-out: Vdss
[14] = Intrinsic clearance in mouse liver S9 fraction; format: ADME, subcellular; details: s9
[15] = Solubility of the compound in acetate buffer at 15 mg at pH 5.5; format: physicochemical
[16] = Half life in human HCT116 cells xenografted BALB/c mouse tumor at 60 mg/kg, ip; format: ADME, organism-based, Neoplasm, HCT-116; design: dose 60 mg/kg, route intraperitoneal
[17] = Thermal stability of the compound at 80 degC after 24 hrs; format: physicochemical
HCT-116 [18] = test: Induction of apoptosis in human HCT116 cells assessed as upregulation of Hsp70 level at 10 nM after 18 hrs by immunoblotting; format: functional, cell-based
[19] = Solubility of the compound in phosphate buffer at 15 mg at pH 6.5; format: physicochemical
[20] = Half life in BALB/c mouse muscle at 60 mg/kg, ip; format: ADME, organism-based, Muscle tissue; design: dose 60 mg/kg, route intraperitoneal
[21] = Protein binding in mouse plasma after 6 hrs by equilibrium dialysis method; format: ADME, cell-free; details: read-out: PPB (converted)
[22] = Clearance in BALB/c mouse plasma at 2 to 10 mg/kg, iv; format: ADME, organism-based; design: dose 2-10 mg/kg, route intravenous
[23] = Solubility of the compound in lactate buffer at 15 mg at pH 4.2; format: physicochemical
HCT-116 [24] = test: Induction of apoptosis in human HCT116 cells assessed as reduction of Raf-1 level at 30 nM after 18 hrs by immunoblotting; format: functional, cell-based
[25] = Half life in BALB/c mouse blood at 60 mg/kg, ip; format: ADME, organism-based; design: dose 60 mg/kg, route intraperitoneal
[26] = Chemical stability of the compound after 24 hrs; format: physicochemical
Cytochrome P450 2C19 = Cytochrome P450 2C19 (Homo sapiens, UniProt P33261); test: Binding affinity to CYP2C19; format: ADME
Cytochrome P450 2C9 = Cytochrome P450 2C9 (Homo sapiens, UniProt P11712); test: Binding affinity to CYP2C9; format: ADME
Cytochrome P450 2C9, sequence (P11712 whole entry): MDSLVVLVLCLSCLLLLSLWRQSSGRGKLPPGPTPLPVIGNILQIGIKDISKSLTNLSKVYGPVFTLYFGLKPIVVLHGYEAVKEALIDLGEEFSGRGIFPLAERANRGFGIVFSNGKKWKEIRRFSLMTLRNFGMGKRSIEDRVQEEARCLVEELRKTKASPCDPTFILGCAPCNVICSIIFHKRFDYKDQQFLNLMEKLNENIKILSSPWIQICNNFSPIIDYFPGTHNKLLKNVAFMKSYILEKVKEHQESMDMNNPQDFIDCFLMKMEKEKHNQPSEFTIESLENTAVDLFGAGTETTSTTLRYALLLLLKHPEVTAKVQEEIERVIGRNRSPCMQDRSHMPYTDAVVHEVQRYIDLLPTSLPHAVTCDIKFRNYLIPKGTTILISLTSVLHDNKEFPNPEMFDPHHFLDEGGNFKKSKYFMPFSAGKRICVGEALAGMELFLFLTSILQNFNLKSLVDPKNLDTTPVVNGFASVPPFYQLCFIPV

T1 sequence (Q12809 whole entry): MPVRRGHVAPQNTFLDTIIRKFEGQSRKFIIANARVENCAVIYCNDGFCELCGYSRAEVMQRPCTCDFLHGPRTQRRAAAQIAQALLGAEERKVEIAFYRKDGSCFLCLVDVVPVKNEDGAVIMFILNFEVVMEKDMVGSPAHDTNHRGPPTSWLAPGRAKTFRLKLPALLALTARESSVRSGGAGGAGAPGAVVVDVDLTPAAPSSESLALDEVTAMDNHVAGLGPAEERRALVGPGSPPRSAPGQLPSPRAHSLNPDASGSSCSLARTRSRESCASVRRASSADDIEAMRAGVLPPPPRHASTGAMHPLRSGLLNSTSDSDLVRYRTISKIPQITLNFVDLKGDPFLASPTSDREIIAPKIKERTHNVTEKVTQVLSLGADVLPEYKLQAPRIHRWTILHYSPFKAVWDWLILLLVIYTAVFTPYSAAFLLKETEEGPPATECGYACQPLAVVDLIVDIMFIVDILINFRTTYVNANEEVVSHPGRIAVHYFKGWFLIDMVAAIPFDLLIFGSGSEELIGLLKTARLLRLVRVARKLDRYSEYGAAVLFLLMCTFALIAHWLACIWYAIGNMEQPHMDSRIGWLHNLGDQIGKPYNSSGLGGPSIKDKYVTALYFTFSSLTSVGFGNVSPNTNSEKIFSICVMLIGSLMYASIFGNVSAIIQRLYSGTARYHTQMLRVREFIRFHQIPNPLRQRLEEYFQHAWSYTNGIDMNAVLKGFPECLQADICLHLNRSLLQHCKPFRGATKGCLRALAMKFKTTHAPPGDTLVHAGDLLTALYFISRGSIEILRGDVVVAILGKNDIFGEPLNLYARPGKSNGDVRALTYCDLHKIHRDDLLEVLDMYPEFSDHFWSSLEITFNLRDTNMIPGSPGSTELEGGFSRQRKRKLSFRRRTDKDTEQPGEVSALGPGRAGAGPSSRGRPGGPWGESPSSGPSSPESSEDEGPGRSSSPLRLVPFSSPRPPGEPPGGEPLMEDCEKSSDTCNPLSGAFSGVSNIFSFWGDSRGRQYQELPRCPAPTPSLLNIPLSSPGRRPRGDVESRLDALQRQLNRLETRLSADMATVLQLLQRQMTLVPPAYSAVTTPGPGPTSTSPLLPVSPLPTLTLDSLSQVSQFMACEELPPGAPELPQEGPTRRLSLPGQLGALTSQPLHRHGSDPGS
CYP2C19, sequence (P33261 whole entry): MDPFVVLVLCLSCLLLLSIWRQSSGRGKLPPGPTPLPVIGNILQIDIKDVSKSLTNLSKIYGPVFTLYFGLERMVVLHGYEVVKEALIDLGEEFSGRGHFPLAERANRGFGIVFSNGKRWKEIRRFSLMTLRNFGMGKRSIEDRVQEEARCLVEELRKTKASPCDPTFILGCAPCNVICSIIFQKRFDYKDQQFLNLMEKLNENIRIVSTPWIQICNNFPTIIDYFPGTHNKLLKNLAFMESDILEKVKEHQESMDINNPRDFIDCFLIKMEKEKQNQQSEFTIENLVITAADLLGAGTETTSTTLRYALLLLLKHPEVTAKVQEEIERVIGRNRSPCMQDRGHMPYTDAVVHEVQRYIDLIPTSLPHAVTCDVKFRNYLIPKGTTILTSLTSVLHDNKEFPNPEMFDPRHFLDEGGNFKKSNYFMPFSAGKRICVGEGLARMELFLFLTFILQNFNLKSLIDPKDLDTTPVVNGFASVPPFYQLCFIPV
CYP2C9, sequence (P11712 whole entry): as the sequence (P11712 whole entry) above
Cytochrome P450 2C19, sequence (P33261 whole entry): as the sequence (P33261 whole entry) above
CYP3A4, sequence (P08684 whole entry): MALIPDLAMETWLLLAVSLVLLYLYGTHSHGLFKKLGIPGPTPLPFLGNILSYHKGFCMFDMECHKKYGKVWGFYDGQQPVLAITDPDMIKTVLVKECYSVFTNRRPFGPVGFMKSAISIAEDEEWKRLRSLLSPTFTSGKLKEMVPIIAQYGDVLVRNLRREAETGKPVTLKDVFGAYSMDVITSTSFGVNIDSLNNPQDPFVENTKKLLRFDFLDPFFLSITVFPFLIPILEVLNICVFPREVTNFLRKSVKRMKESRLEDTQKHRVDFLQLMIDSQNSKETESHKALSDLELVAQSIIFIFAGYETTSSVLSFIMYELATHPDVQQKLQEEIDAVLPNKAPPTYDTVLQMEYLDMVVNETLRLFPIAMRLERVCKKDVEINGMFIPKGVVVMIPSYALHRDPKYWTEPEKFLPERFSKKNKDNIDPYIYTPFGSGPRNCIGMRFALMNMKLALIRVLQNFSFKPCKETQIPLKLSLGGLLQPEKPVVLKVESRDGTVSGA

fraction unbound at 6 h [1] | logD (physchem) | pKa [3] | solubility [6] [mg/mL] | solubility [15] [mg/mL] | solubility [19] [mg/mL] | solubility [23] [mg/mL] | Compound | inhibition at 30 µM (hERG (KCNH2) [2]) [%] | inhibition at 3 µM (hERG (KCNH2) [4]) [%] | also measured
0.36 | 1.6 | 8.4 |  |  |  |  | CC(C)c1cc(C(=O)N2Cc3ccc(N4CCNCC4)cc3C2)c(O)cc1O | 70 | 13 | 
 |  |  |  |  |  |  | CC(C)c1cc(C(=O)N2Cc3cccc(N4CCN(C)CC4)c3C2)c(O)cc1O | 87 | 41 | inhibition at 10 µM (CYP3A4): < 50%
0.36 | 2.7 | 7.7 | > 30 | > 30 | 15 (≈ 36.6 mM) | > 30 | CC(C)c1cc(C(=O)N2Cc3ccc(CN4CCN(C)CC4)cc3C2)c(O)cc1O [ONALESPIB] | 42 | 7 | inhibition at 10 µM (CYP2C9): < 50%; inhibition at 10 µM (CYP2C19): < 50%; Stability [5]: Stable; inhibition in vivo at 60 mg/kg (HCT-116 [7]): 78%; Stability [8]: Stable; bioavailability [9]: 31%; Activity (HCT-116 [10]): Active; inhibition in vivo at 60 mg/kg (HCT-116 [11]): 22%; half-life [12]: 0.9 h; Vd [13]: 11 L/kg; CL [14]: 0.046 mL/min/kg; half-life [16]: 65 h; Stability [17]: Stable; Activity (HCT-116 [18]): Active; half-life [20]: 3 h; fraction unbound at 6 h [21]: 0.09; clearance [22]: 113 mL/min/kg; Activity (HCT-116 [24]): Active; half-life [25]: 4.7 h; Stability [26]: Stable
 | 0.96 | 10.2 |  |  |  |  | CC(C)c1cc(C(=O)N2Cc3ccc(OCCCN)cc3C2)c(O)cc1O | 42 | 8 | Activity (Cytochrome P450 2C19): Active; Activity (Cytochrome P450 2C9): Active
 | 3.55 | 7 |  |  |  |  | CC(C)c1cc(C(=O)N2Cc3cccc(OCCCN4CCOCC4)c3C2)c(O)cc1O | 83 | 23 | 
0.36 | 2.1 | 9.2 |  |  |  |  | CC(C)c1cc(C(=O)N2Cc3ccc(CN(C)C)cc3C2)c(O)cc1O | 57 | 5 | inhibition at 10 µM (CYP2C9): 50%; inhibition at 10 µM (CYP2C19): 50%
0.36 | 1.7 | 9.05 | < 3 | < 3 | < 3 | < 3 | CC(C)c1cc(C(=O)N2Cc3ccc(NC4CCN(C)CC4)cc3C2)c(O)cc1O | 72 | 25 | 
 | 3.3 | 6.9 |  |  |  |  | CC(C)c1cc(C(=O)N2Cc3ccc(OCCCN4CCOCC4)cc3C2)c(O)cc1O | 95 | 51 | 
0.36 | 2.1 | 6.8 |  |  |  |  | CC(C)c1cc(C(=O)N2Cc3ccc(C(=O)N4CCN(C)CC4)cc3C2)c(O)cc1O | 49 | 21 | fraction unbound at 6 h [21]: 0.29

Compound | fraction unbound at 6 h [1] | logD (physchem) | pKa [3] | solubility [6] [mg/mL] | solubility [15] [mg/mL] | solubility [19] [mg/mL] | solubility [23] [mg/mL] | inhibition at 30 µM (hERG (KCNH2) [2]) [%] | inhibition at 3 µM (hERG (KCNH2) [4]) [%] | also measured
CC(C)c1cc(C(=O)N2Cc3ccc(C4(O)CCN(C)CC4)cc3C2)c(O)cc1O | 0.36 | 1.7 | 9.4 | > 30 | > 30 | 15 (≈ 36.5 mM) | > 30 | 34 | 15 | Stability [5]: Stable; Stability [8]: Stable; Stability [17]: Unstable; Stability [26]: Stable
